As a reminder, the IC50 is the concentration at which inhibition is half-maximal.

What all share (type): functional
The target in experiment [1] is Melanin-concentrating hormone receptor 1 (Homo sapiens, UniProt Q99705). Kind of experiment: Late-stage fluorescence-based counterscreen for antagonists of the G-protein coupled receptor 7 (GPR7): cell-based dose response assay to identify antagonists of the melanin-concentrating hormone receptor 1 (MCHR1) Set 5.
In experiment [2] the target is T1, Neuropeptides B/W receptor type 1 (Homo sapiens, UniProt P48145).
T1 sequence (P48145 whole entry): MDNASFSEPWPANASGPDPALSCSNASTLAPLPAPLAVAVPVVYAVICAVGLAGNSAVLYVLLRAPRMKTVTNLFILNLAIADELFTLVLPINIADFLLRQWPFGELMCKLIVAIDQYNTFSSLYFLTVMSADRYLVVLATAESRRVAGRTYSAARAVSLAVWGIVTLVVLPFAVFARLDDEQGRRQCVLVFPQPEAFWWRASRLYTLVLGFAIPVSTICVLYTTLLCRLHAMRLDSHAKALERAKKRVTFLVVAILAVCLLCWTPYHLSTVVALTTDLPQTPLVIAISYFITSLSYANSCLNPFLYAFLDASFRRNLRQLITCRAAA
Kind of experiment: human NPBW1 receptor blockade, IC50 – cell-based, fluorescence, dose response, set 5, late-stage follow-up (AID 588566).

Experiment [3] is described as follows: SAR analysis of small molecule activators of Apaf-1 using a LZ-Caspase-9/Caspase-3 Fluorescent Selectivity assay - Set 2. The conditions noted are these: read-out: EC50_Mean.
Experiment [4] concerns the target T2, Apoptotic protease-activating factor 1 (Homo sapiens, UniProt O14727).
T2 sequence (O14727 whole entry): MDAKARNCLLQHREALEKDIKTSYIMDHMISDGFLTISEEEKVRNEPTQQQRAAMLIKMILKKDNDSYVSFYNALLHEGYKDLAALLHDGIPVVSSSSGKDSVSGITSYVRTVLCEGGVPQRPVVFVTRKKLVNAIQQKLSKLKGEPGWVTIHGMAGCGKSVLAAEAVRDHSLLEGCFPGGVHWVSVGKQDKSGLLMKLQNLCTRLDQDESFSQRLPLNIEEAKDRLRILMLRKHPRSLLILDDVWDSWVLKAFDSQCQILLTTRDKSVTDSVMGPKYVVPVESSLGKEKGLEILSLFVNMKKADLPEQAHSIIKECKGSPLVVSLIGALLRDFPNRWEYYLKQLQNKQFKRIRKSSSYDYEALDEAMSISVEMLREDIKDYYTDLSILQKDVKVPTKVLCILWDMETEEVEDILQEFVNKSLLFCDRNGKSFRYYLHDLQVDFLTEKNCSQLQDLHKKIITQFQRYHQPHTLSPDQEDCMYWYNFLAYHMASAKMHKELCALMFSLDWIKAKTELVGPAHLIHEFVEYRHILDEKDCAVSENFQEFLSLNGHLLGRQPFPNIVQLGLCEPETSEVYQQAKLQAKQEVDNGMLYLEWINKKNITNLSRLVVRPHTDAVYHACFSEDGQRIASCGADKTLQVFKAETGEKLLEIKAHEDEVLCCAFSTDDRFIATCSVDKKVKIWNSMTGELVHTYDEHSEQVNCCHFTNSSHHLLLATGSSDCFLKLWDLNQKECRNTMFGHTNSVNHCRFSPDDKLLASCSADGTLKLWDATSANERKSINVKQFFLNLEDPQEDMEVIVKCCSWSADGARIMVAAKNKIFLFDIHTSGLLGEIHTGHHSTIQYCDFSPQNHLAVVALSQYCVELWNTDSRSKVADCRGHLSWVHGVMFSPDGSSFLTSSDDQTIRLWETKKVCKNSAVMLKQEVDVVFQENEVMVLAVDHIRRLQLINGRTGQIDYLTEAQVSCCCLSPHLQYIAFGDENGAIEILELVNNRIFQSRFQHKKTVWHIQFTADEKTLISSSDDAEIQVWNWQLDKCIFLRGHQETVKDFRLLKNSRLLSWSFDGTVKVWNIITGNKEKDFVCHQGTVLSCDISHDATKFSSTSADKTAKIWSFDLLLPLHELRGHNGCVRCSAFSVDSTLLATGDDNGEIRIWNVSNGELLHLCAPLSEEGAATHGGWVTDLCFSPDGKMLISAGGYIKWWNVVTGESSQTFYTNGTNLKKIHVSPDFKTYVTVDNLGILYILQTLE
Kind of experiment: SAR analysis of small molecule Activators of Apaf-1 in a Fluorescent assay - set 2. The conditions noted are these: read-out: EC50_Mean.

The structures appear in SMILES notation. Calls of active or inactive are those of the source.

Chain of Melanin-concentrating hormone receptor 1 (Q99705 whole entry): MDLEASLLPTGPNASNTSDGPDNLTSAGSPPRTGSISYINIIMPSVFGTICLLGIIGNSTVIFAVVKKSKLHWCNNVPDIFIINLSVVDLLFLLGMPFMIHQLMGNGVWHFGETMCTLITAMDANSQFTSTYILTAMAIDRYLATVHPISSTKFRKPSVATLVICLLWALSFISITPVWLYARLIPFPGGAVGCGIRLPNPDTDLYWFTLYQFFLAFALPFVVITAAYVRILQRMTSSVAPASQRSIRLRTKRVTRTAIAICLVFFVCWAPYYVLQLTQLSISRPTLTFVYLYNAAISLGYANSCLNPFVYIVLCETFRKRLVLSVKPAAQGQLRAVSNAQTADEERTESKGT

On to `COc1ccc(Oc2c(C(=O)O)cnn(Cc3cccc4ccccc34)c2=O)cc1`, for which the IC50 in experiment [1] and in experiment [2] was > 20 µM (inactive) each time.
In the case of `COc1cc(OC)c(C2=NOC(C(=O)O)C2)cc1Cl` (centres undefined), the EC50 in experiment [3] and in experiment [4] was > 100 µM (inactive) throughout.

For the origin of these results see ChEMBL document CHEMBL1201862, “PubChem BioAssay data set” (2004).
